Patent publication US12624009B2, “Hydrate of VEGFR inhibitor, crystal form thereof and preparation method therefor” (CHENGDU EASTON BIOPHARMACEUTICALS CO., LTD, priority 2023, dated 2026)

How the values were obtained:
Format in all cases: physicochemical
[1] = Stability of crystal forms suspended and stirred in water, solids characterised by XRD; conditions: for crystal form stability in water: 25° C. and 37° C., 5 h and 24 h, compared with crystal forms I, II, III, VII, IV, VIII and C
Excerpt: The solids were filtered and subjected to XRD characterization.

[2] = Storage stability investigation of crystal forms of fruquintinib (crystal form after storage); conditions: for crystal form stability under the conditions investigated: 25° C./RH60% and 40° C./RH75%, storage up to 6 months (FIG. 4, 5A, 5B)
[3] = Grinding in planetary ball mill, XRD compared with simulated single-crystal pattern; conditions: 60 HZ, about 30 s
Excerpt: The XRD pattern after grinding was substantially consistent with FIG. 1B.

Suspending and stirring for 5 h Crystal form ([1]; 25° C.)	Suspending and stirring for 24 h Crystal form ([1]; 25° C.)	Suspending and stirring for 5 h Crystal form ([1]; 37° C.)	Suspending and stirring for 24 h Crystal form ([1]; 37° C.)	crystal form stability under the conditions investigated [2]	Crystal form after storage ([2]; 25° C./RH60%, 6 months)	Crystal form after storage ([2]; 40° C./RH75%, 6 months)	Crystal form after storage ([2]; 25° C./RH60%, 2 months)	Crystal form after storage ([2]; 40° C./RH75%, 2 months)	polymorphic transition after grinding [3]	crystal form stability in water [1]	crystal form stability in water ([1]; listed as crystal form α of fruquintinib)	Compound
Crystal form I		Crystal form I										CNC(=O)c1c(C)oc2cc(Oc3ncnc4cc(OC)c(OC)cc34)ccc12 [Crystal form I, 6-(6,7-dimethoxyquinazolin-4-yl-oxy)-N,2-dimethylbenzofuran-3-carboxamide]
Crystal form α	Crystal form α	Crystal form α	Crystal form α									CNC(=O)c1c(C)oc2cc(Oc3ncnc4cc(OC)c(OC)cc34)ccc12 [Crystal form II, 6-(6,7-dimethoxyquinazolin-4-yl-oxy)-N,2-dimethylbenzofuran-3-carboxamide]
Crystal form α	Crystal form α	Crystal form α	Crystal form α									CNC(=O)c1c(C)oc2cc(Oc3ncnc4cc(OC)c(OC)cc34)ccc12 [Crystal form III, 6-(6,7-dimethoxyquinazolin-4-yl-oxy)-N,2-dimethylbenzofuran-3-carboxamide]
Crystal form α	Crystal form α	Crystal form α	Crystal form α									CNC(=O)c1c(C)oc2cc(Oc3ncnc4cc(OC)c(OC)cc34)ccc12 [Crystal form IV, 6-(6,7-dimethoxyquinazolin-4-yl-oxy)-N,2-dimethylbenzofuran-3-carboxamide]
				good crystal form stability	Crystal form α	Crystal form α						CNC(=O)c1c(C)oc2cc(Oc3ncnc4cc(OC)c(OC)cc34)ccc12 [Crystal form α (after grinding), 6-(6,7-dimethoxyquinazolin-4-yl-oxy)-N,2-dimethylbenzofuran-3-carboxamide]

Second part, the molecule before the results:

Compound	Suspending and stirring for 5 h Crystal form ([1]; 25° C.)	Suspending and stirring for 24 h Crystal form ([1]; 25° C.)	Suspending and stirring for 5 h Crystal form ([1]; 37° C.)	Suspending and stirring for 24 h Crystal form ([1]; 37° C.)	crystal form stability under the conditions investigated [2]	Crystal form after storage ([2]; 25° C./RH60%, 6 months)	Crystal form after storage ([2]; 40° C./RH75%, 6 months)	Crystal form after storage ([2]; 25° C./RH60%, 2 months)	Crystal form after storage ([2]; 40° C./RH75%, 2 months)	polymorphic transition after grinding [3]	crystal form stability in water [1]	crystal form stability in water ([1]; listed as crystal form α of fruquintinib)
CNC(=O)c1c(C)oc2cc(Oc3ncnc4cc(OC)c(OC)cc34)ccc12 [Crystal form C, 6-(6,7-dimethoxyquinazolin-4-yl-oxy)-N,2-dimethylbenzofuran-3-carboxamide]	Crystal form α	Crystal form α	Crystal form α	Crystal form α								
CNC(=O)c1c(C)oc2cc(Oc3ncnc4cc(OC)c(OC)cc34)ccc12 [Crystal form VII, 6-(6,7-dimethoxyquinazolin-4-yl-oxy)-N,2-dimethylbenzofuran-3-carboxamide]	Crystal form α	Crystal form α	Crystal form α	Crystal form α								
CNC(=O)c1c(C)oc2cc(Oc3ncnc4cc(OC)c(OC)cc34)ccc12 [Crystal form VIII, 6-(6,7-dimethoxyquinazolin-4-yl-oxy)-N,2-dimethylbenzofuran-3-carboxamide]	Crystal form α	Crystal form α	Crystal form α	Crystal form α								
CNC(=O)c1c(C)oc2cc(Oc3ncnc4cc(OC)c(OC)cc34)ccc12 [Crystal form α + crystal form I, 6-(6,7-dimethoxyquinazolin-4-yl-oxy)-N,2-dimethylbenzofuran-3-carboxamide]	Crystal form α	Crystal form α	Crystal form α	Crystal form α								
CNC(=O)c1c(C)oc2cc(Oc3ncnc4cc(OC)c(OC)cc34)ccc12 [Crystal form α, 6-(6,7-dimethoxyquinazolin-4-yl-oxy)-N,2-dimethylbenzofuran-3-carboxamide]	Crystal form α	Crystal form α	Crystal form α	Crystal form α	good crystal form stability	Crystal form α	Crystal form α	Crystal form α	Crystal form α	did not undergo polymorphic transition	good stability in water	better crystal form stability
